Molecules are shown by their SMILES.

From patent publication US12629358B2, “Compound used as RET kinase inhibitor and application thereof” (TYK MEDICINES, INC., priority 2019, dated 2026) come the findings set out here.

Chain of wild-type RET kinase (P07949 29-1114): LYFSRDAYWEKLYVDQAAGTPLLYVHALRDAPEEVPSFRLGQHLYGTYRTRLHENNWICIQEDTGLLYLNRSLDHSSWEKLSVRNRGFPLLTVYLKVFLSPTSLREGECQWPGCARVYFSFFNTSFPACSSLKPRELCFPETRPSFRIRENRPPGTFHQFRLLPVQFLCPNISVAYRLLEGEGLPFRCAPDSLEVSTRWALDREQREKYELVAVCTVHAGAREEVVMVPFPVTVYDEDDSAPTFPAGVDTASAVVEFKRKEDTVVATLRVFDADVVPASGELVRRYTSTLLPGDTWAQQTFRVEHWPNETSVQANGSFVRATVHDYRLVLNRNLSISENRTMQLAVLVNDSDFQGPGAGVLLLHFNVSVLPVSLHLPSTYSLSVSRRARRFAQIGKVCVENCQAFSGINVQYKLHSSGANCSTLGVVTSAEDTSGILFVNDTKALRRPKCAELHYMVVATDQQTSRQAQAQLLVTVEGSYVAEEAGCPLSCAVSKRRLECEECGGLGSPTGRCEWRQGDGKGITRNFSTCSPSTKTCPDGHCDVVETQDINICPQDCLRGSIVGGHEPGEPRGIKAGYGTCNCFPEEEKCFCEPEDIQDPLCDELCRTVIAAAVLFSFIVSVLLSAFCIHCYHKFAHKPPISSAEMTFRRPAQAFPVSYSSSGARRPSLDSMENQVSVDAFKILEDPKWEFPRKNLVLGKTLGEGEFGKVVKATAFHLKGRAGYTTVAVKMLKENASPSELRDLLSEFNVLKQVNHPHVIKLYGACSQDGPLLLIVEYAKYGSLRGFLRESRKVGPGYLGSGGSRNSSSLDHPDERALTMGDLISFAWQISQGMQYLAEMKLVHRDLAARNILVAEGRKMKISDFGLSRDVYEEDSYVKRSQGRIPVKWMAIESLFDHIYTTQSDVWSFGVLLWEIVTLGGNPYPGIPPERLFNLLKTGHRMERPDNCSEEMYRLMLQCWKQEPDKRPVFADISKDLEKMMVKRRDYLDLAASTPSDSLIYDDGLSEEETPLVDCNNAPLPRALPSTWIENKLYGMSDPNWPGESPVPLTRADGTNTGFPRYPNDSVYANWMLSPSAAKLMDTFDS

The target of one data set is wild-type RET kinase (Homo sapiens, UniProt P07949). As to the kind of experiment: Enzyme activity test against wild-type RET kinase (33P-ATP filter-binding kinase activity assay). The format is biochemical. Particulars: ATP Km concentration, 10 concentrations. The protocol:
A biological activity test experiment was conducted below for some compounds of the above Examples and Comparative Example.
[…]. The biological activity screening of the compounds will be determined repeatedly at 10 concentrations.
Each sample was prepared into a solution with a concentration of 10 mM.
The test compound was dissolved in 100% dimethyl sulfoxide to a specific concentration. Integra Viaflo Assist was used to assist DMSO for (continuous) dilution.
Kinase was added to the newly prepared basic reaction buffer
Adding any desired cofactors to the substrate solution.
Adding wild-type RET kinase into the substrate solution and gently mixing;
Acoustic technology (Echo 550; Nanoliter range) was used to feed the compounds in 100% of dimethyl sulfoxide into the kinase reaction mixture and incubated at room temperature for 20 minutes.
33P-ATP (specific activity 10 Ci/l) was added to the reaction mixture to start the reaction.
Incubated at room temperature for 2 hours
Radioactivity was detected by filter-binding method.
Kinase activity data was expressed as the percentage of remaining kinase activity in the test sample compared to the vehicle (dimethyl sulfoxide) reaction. Prism (GRAPHPAD software) was used to obtain IC50 value and curve-fitting.
In the case of `COC1(C(=O)N[C@@H](C)c2ccc(-n3cc(F)cn3)nc2)CC=C(c2ccc(C#N)c(Nc3cc(C)[nH]n3)n2)CC1` (some centres unmarked) [Comparative Example C32, reference compound], the “Wild-RET IC50” value is “no activity”. On to `CO[C@]1(C(=O)N[C@@H](C)c2ccc(-n3cc(F)cn3)nc2)CC[C@@H](c2nc(Nc3cc(C)[nH]n3)ccc2C#N)CC1` [Compound C1], for which the IC50 (commonly the concentration at which inhibition is half-maximal) was determined as 146 nM.

In the case of `CO[C@]1(C(=O)N[C@@H](C)c2ccc(-n3cc(F)cn3)nc2)CC[C@@H](c2nc(Nc3cc(C)[nH]n3)cc3cccnc32)CC1` [Compound C3], the half-maximal inhibitory concentration (IC50) came to 241 nM. This IC50 lies about 1.7-fold higher than the previous one. On to `CO[C@]1(C(=O)N[C@@H](C)c2ccc(-n3cc(F)cn3)nc2)CC[C@@H](c2nc(Nc3cc(C)[nH]n3)cc3c2N(C)CCC3)CC1` [Compound C5], for which the half-inhibitory concentration (IC50) came to 100 nM. This IC50 lies about 2.4-fold lower than the previous one. The compound `CO[C@]1(C(=O)N[C@@H](C)c2ccc(-n3cc(F)cn3)nc2)CC[C@H](c2nc(Nc3cc(C)[nH]n3)cc3c2N(C)CCC3)CC1` [Compound C6] yielded an IC50 of 3.53 nM. On to `COC1(C(=O)N[C@@H](C)c2ccc(-n3cc(F)cn3)nc2)CC=C(c2nc(Nc3cc(C)[nH]n3)ccc2C#N)CC1` (some centres unmarked) [Compound C7], for which the IC50 is 5.34 nM. This IC50 is about 1.5-fold higher than that of the compound before. The same measure, in the same setting: with `COC1(C(=O)N[C@@H](C)c2ccc(-n3cc(F)cn3)nc2)CC=C(c2nc(Nc3cc(C)[nH]n3)cc3cccnc23)CC1` (some centres unmarked) [Compound C8] the figure was 1.53 nM; with `CO[C@]1(C(=O)N[C@@H](C)c2ccc(-n3cc(F)cn3)nc2)CC[C@H](c2nc(Nc3cc(C)[nH]n3)c(F)cc2C#N)CC1` [Compound C9], 3.38 nM. Same read-out and setting: the same measure for `CO[C@]1(C(=O)N[C@@H](C)c2ccc(-n3cc(F)cn3)nc2)CC[C@@H](c2nc(Nc3cc(C)[nH]n3)c(F)cc2C#N)CC1` [Compound C10]: 262 nM; for `COC1(C(=O)N[C@@H](C)c2ccc(-n3cc(F)cn3)nc2)CC=C(c2nc(Nc3cc(C)[nH]n3)c(F)cc2C#N)CC1` (some centres unmarked) [Compound C11]: 17.4 nM. `COC1(C(=O)N[C@@H](C)c2ccc(-n3cc(F)cn3)nc2)CC=C(c2nc(Nc3cc(C)[nH]n3)cnc2C#N)CC1` (some centres unmarked) [Compound C12] yielded a 50% inhibitory concentration (IC50) of 16.1 nM. The IC50 values of the last two compounds are within 1.5-fold of each other.

Tested on in a further data set: not listed separately
As to the kind of experiment: Metabolism test of drugs: plasma pharmacokinetics after intravenous and intragastric administration. The note with it: male, rat; SD rats, PO, 10 mg/kg, plasma. The format is in vivo. The method, then:
Four small molecule compounds of BLU-667, compound C2, compound C4 and compound C8 were administered to SD rats by intravenous and intragastric administration respectively. Blood samples were collected at different time points to determine the concentration of drugs in plasma after administration and calculate the related pharmacokinetics parameters.
The vehicle of BLU-667, C2, C4 and C8 was 10% NMP+49% PEG400+1% Tween80+40% Water. The specific preparation method was as follows: proper amount of tested samples was weighed, dissolved in 10% NMP+49% PEG400+1% Tween80+40% Water, mixed well by vortex for later use.
LC-MS/MS was used by the analysis department of the experimental organization to detect and analyze the prepared solution of sample for test.
Healthy male SD rats were used in this research. Animal weight: 150-200 g. All animals fasted before administration, and resumed feeding 4 hours after administration.
Time points for blood collection were: • Intravenous administration (groups 1, 3 and 5): 0.0833, 0.25, 0.5, 1, 2, 4, 8, 12 and 24 hours after administration. (±2 min at time point ≤2 hr, ±15 min at other points.) • Oral administration: (groups 2, 4, 6 and 7): 0.25, 0.5, 1, 2, 4, 8, 12 and 24 hours after administration. (±2 m at time point […] at other points.)
About 0.1 mL of blood was collected from each animal through jugular vein every time, and EDTA or heparin sodium was used as anticoagulant. Blood samples were collected and placed on ice, and plasma was separated by centrifugation (centrifugation conditions: 5000 r/min, 6 min, 4° C.).
LC-MS/MS was used by the analysis department of the experimental organization to analyze the plasma samples of rats.
According to the data of blood drug concentration of the drug, the pharmacokinetic parameters AUC0→t, AUC0→∞, MRT0→∞, CMax, TMax, Vss, F, CL and T1/2 as well as their mean and standard deviation of the samples for test were calculated respectively by pharmacokinetic calculation software WinNonlin non-compartment model.
The main pharmacokinetic parameters of BLU-667, compound C2, compound C4 and compound C8 in plasma after intravenous and single oral administration of BLU-667, compound C2, compound C4 and compound C8 in SD rats were shown in Table 3
For the compound `COC1(C(=O)N[C@@H](C)c2ccc(-n3cc(F)cn3)nc2)CC=C(c2nc(Nc3cc(C)[nH]n3)cc3cccnc23)CC1` (some centres unmarked) [Compound C8], the total exposure AUC(0-inf) – broadly, total exposure, with the tail of the curve extrapolated – is 2830 ng·h/mL; the AUC(0-t) (as a rule, the area under the concentration-time curve up to a stated or last time point) amounted to 2800 ng·h/mL; the peak level (Cmax) was 824 ng/mL; the Tmax (commonly the time at which the peak concentration occurs) was 2 h. Also, the half-life (usually the time needed for the level to fall by half in the phase considered) was 1.95 h.

Staying with this data set, now noted: male, rat; SD rats, PO, 10 mg/kg, plasma; read-out: MRTINF_ obs.
For `COC1(C(=O)N[C@@H](C)c2ccc(-n3cc(F)cn3)nc2)CC=C(c2nc(Nc3cc(C)[nH]n3)cc3cccnc23)CC1` (some centres unmarked) [Compound C8], the MRT turned out to be 2.85 h.
